Results on one compound are retold here after ChEMBL document CHEMBL5608173, “Discovery of novel natural-product-derived mutant isocitrate dehydrogenases 1 inhibitors: Structure-based virtual screening, biological evaluation and structure-activity relationship study” (Eur J Med Chem, 2024).

This experiment has as its system HT-1080. Description: Induction of apoptosis in human HT-1080 cells assessed as viable cells at 6 uM incubated for 24 hrs by Annexin V-FITC/PI staining based flow cytometric analysis (reference value: 96.65 %). Format: functional. As to conditions: read-out: Activity. (A flow cytometer gives signals particle by particle.)

As to `COc1cc(O)c(-c2cc(-c3ccc(O)cc3)nc(N3CCNCC3)n2)cc1CC=C(C)C`, the viability at 6 µM turned out to be 87.3%.
